Experimental data as given in US12565501B2, “Muscarinic acetylcholine M1 receptor antagonists” (Contineum Therapeutics, Inc., priority 2019, dated 2026).

Columns and labels:
Type in all cases: cell-based
[1] = target: T1, human M1 receptor (Homo sapiens, UniProt P11229); test: In vitro functional assay of muscarinic acetylcholine receptor activity (aequorin calcium flux, reversal of EC80 acetylcholine response); details: CHO-K1 cells stably expressing human M1 receptor with aequorin; acetylcholine at EC80; calcium flux (luminescence); read-out: M1 IC50
T1 sequence (P11229 1-460): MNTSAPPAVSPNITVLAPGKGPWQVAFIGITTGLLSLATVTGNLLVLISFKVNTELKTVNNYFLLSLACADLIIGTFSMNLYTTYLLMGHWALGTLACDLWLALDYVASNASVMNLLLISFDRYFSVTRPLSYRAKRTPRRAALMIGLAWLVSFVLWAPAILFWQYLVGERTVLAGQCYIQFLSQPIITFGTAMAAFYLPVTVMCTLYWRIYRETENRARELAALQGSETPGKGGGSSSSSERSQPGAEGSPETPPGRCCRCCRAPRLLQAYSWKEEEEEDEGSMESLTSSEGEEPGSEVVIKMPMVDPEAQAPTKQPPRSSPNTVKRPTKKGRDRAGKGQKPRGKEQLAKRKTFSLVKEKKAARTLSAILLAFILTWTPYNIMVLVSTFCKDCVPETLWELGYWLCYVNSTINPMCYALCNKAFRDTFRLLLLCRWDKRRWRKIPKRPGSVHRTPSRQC
Procedure, shortened: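 Antagonist mode: compound (final 0.1% DMSO) and coelenterazine-loaded M1/aequorin CHO-K1 cells incubated 30 min in the dark before EC80 acetylcholine addition. Calcium flash integrated as 40 s luminescence AUC; IC50 derived from dose-response curves.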

[2] = target: human M3 receptor (Homo sapiens, UniProt P20309); test: In vitro functional assay, reversal of EC80 acetylcholine response in CHO-K1 aequorin cells
Chain of human M3 receptor (P20309 whole entry): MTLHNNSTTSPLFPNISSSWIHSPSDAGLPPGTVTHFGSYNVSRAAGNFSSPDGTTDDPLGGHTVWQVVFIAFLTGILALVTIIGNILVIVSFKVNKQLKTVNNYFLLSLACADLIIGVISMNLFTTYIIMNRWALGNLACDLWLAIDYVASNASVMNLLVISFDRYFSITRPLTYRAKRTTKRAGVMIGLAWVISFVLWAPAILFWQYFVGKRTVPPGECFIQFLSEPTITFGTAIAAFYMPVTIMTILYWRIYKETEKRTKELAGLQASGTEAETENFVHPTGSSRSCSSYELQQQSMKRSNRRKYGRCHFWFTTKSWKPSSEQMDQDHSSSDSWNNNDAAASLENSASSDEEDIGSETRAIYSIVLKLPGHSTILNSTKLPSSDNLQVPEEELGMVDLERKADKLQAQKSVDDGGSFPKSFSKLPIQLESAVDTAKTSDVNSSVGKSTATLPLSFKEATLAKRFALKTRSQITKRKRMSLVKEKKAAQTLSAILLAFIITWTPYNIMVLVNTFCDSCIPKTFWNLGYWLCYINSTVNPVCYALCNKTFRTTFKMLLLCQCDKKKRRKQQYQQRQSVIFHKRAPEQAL
Method: (§1) CHO-K1 cells stably expressing human M1 receptor with aequorin (Perkin Elmer) were grown in F12 media (Gibco) containing 10% FBS (ATCC), 0.4 mg/mL geneticin (Sigma-Aldrich) and 0.25 mg/mL Zeocin (Invitrogen). Cells were grown as per the manufacturer's protocol. For compound testing, cells were grown to confluency and detached gently with Accutase (Sigma-Aldrich) followed by centrifugation for 5 min at 150× g. Cells were then re-suspended in assay buffer (i.e. DMEM/F-12 HEPES without phenol red (Invitrogen) with 0.1% BSA (Sigma-Aldrich)) at a density of 5×10^6 cells/ml. Under sterile conditions, 5 μM coelenterazine (Invitrogen) was added to the cells, mixed, then incubated at room temperature protected from light, with gentle agitation, for 4 h.
(§2) Primary compound plates were prepared in 100% DMSO in opaque 96-well plates (VWR) and serially diluted in half log increments. Secondary compound plates were prepared at 3× concentration in assay buffer. Compounds were added to white, clear bottom tissue culture treated 96-well plates (Fisher Scientific). Coelenterazine-loaded cells were then added at 5×10^5 cells/well.
(§3) Compounds and cells were incubated at room temperature for 30 min in the dark. Acetylcholine at the EC80 concentration was added and calcium flux measured using a FlexStation 3 (Molecular Devices). Sigmoidal dose-response curves were generated by measuring luminescence over 40 sec and calculating the area under the curve. Dose response curves and IC50 values were generated using Prism (GraphPad). Compounds were tested at a final concentration range of 100 μM to […] in 0.1% DMSO.
(§4) CHO-K1 cells stably expressing human M2, M3 and M4 receptors, respectively, with aequonin (Perkin Elmer) were used to assess a test compound's ability to dose-dependently reverse the EC80 acetylcholine response. The IC50 of the compounds was calculated from the dose response curve.

[3] = target: T2, human M4 receptor (Homo sapiens, UniProt P08173); test: as above
T2 sequence (P08173 1-479): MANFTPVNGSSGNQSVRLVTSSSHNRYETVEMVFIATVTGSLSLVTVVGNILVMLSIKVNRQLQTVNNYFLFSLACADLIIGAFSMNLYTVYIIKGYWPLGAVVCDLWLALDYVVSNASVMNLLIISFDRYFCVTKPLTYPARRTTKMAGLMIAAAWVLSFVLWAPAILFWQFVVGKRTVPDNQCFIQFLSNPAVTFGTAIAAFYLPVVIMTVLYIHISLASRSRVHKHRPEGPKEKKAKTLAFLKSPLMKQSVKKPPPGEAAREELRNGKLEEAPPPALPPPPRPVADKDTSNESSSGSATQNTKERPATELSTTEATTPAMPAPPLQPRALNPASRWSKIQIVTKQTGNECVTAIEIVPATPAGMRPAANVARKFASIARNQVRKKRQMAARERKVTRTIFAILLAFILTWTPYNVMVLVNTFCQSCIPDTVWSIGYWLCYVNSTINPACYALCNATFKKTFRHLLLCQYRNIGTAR
Method: as §1, §2, §3, §4

[4] = target: T3, human M2 receptor (Homo sapiens, UniProt P08172); test: as above
T3 sequence (P08172 1-466): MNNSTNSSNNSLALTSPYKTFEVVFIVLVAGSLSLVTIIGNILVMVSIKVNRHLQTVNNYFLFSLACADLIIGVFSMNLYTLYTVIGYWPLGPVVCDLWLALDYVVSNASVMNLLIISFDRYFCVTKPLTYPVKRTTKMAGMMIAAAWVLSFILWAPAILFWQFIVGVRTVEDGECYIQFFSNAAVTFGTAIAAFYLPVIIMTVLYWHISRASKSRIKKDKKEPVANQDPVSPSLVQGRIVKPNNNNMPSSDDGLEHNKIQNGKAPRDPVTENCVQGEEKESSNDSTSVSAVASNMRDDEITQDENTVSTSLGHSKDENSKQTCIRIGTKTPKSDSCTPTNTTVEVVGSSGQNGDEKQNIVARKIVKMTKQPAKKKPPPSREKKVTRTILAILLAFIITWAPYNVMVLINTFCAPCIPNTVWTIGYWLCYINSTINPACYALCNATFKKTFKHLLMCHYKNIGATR
Method: as §1, §2, §3, §4

Row | Structure (SMILES) | IC50 [1] | IC50 [2] | IC50 [3] | IC50 [4]
1 | COc1cc(C2(NCC(=O)N3CC4CCC(C3)N4c3ccc(C#N)cn3)CCC2)ccn1 [Example 118, 6-(3-((1-(2-methoxypyridin-4-yl)cyclobutyl)glycyl)-3,8-diazabicyclo[3.2.1]octan-8-yl)nicotinonitrile] | 0.01 to 0.1 µM | 1 to 10 µM | 0.1 to 1 µM | 1 to 10 µM
2 | N#Cc1ccc(N2C3CCC2CN(C(=O)CCNC2(c4ccc(F)c(F)c4)CC2)C3)nc1 [Example 1, 6-(3-(3-((1-(3,4-difluorophenyl)cyclopropyl)amino)propanoyl)-3,8-diazabicyclo[3.2.1]octan-8-yl)nicotinonitrile] | < 0.01 µM | 1 to 10 µM | 0.1 to 1 µM | 0.1 to 1 µM
3 | C[C@H](NCC(=O)N1CC2CCC(C1)N2c1ccc(C#N)cn1)c1ccc(F)cc1F [Example 87, 6-(3-(((S)-1-(2,4-difluorophenyl)ethyl)glycyl)-3,8-diazabicyclo[3.2.1]octan-8-yl)nicotinonitrile] | < 0.01 µM | 1 to 10 µM | 1 to 10 µM | 1 to 10 µM
4 | N#Cc1ccc(N2C3CC[C@H]2CN(C(=O)COC2(c4ccc(F)c(F)c4)CCC2)C3)nc1 [Example 239] | < 0.01 µM | 1 to 10 µM | 1 to 10 µM | 1 to 10 µM
5 | C[C@@H](OCCC(=O)N1C[C@H]2CC[C@@H](C1)N2c1ccc(C#N)cn1)c1ccccc1 [Example 304, 6-(3-(3-((R)-1-phenylethoxy)propanoyl)-3,8-diazabicyclo[3.2.1]octan-8-yl)nicotinonitrile] | 0.01 to 0.1 µM | > 1 µM | – | 1 to 10 µM
6 | N#Cc1ccc(N2C3CCC2CN(C(=O)CCC(F)(F)c2cccn4ncnc24)C3)nc1 [Example 158, 6-(3-(4-([1,2,4]triazolo[1,5-a]pyridin-8-yl)-4,4-difluorobutanoyl)-3,8-diazabicyclo[3.2.1]octan-8-yl)nicotinonitrile] | < 0.01 µM | 0.1 to 1 µM | 0.1 to 1 µM | 1 to 10 µM
7 | N#Cc1ccc(N2C3CCC2CN(C(=O)COC2(c4ncccc4F)CCC2)C3)nc1 [Example 250, 6-(3-(2-(1-(3-fluoropyridin-2-yl)cyclobutoxy)acetyl)-3,8-diazabicyclo[3.2.1]octan-8-yl)nicotinonitrile] | 0.1 to 1 µM | 1 to 10 µM | – | > 1 µM
8 | N#Cc1ccc(N2C3CCC2CN(C(=O)CNC2(c4ccc(F)cc4F)CC2)C3)nc1 [Example 59, 6-(3-((1-(2,4-difluorophenyl)cyclopropyl)glycyl)-3,8-diazabicyclo[3.2.1]octan-8-yl)nicotinonitrile] | < 0.01 µM | 1 to 10 µM | 1 to 10 µM | 1 to 10 µM
9 | COc1cc(C(F)(F)CCC(=O)N2CC3CCC(C2)N3c2ccc(C#N)cn2)ccn1 [Example 138, 6-(3-(4,4-difluoro-4-(2-methoxypyridin-4-yl)butanoyl)-3,8-diazabicyclo[3.2.1]octan-8-yl)nicotinonitrile] | < 0.01 µM | 0.1 to 1 µM | 0.1 to 1 µM | 1 to 10 µM
10 | N#Cc1ccc(N2C3CCC2CN(C(=O)COC2(c4cc(F)cc(F)c4)CC2)C3)nc1 [Example 210, 6-(3-(2-(1-(3,5-difluorophenyl)cyclopropoxy)acetyl)-3,8-diazabicyclo[3.2.1]octan-8-yl)nicotinonitrile] | 0.01 to 0.1 µM | 1 to 10 µM | – | > 1 µM
11 | N#Cc1ccc(N2C3CCC2CN(C(=O)COC2(c4ccc(F)c(F)c4)CC2)C3)nc1 [Example 177, 6-(3-(2-(1-(3,4-difluorophenyl)cyclopropoxy)acetyl)-3,8-diazabicyclo[3.2.1]octan-8-yl)nicotinonitrile] | 0.01 to 0.1 µM | 1 to 10 µM | 1 to 10 µM | 1 to 10 µM
12 | COc1ccnc(C(F)(F)CCC(=O)N2CC3CCC(C2)N3c2ccc(C#N)cn2)c1 [Example 147, 6-(3-(4,4-difluoro-4-(4-methoxypyridin-2-yl)butanoyl)-3,8-diazabicyclo[3.2.1]oxtan-8-yl)nicotinonitrile] | < 0.01 µM | 0.1 to 1 µM | 0.1 to 1 µM | 1 to 10 µM
13 | COc1cccnc1C(F)(F)CCC(=O)N1CC2CCC(C1)N2c1ccc(C#N)cn1 [Example 162, 6-(3-(4,4-difluoro-4-(3-methoxypyridin-2-yl)butanoyl)-3,8-diazabicyclo[3.2.1]octan-8-yl)nicotinonitrile] | < 0.01 µM | 0.1 to 1 µM | 0.1 to 1 µM | 1 to 10 µM
